Source: patent publication US20080206311A1, “Sucrase Activity Inhibitor, Glucoamylase Activity Inhibitor and Food and Feed Containing the Same” (MITSUI SUGAR CO., LTD., priority 2005, published 2008)

Tests used:
[1] = target: T1, sucrose-isomaltase complex (Rattus norvegicus, UniProt P23739); test: Confirmation test: decomposability of the sucrose-isomaltase complex (crude enzyme) on dextrin; format: biochemical; settings: 37° C., 20 min
T1 construct: tissue Sigma Corporation; host or cells: rat small intestine (acetone powder); papain treatment, 45-65% ammonium sulfate cut, dialysis, DEAE-Cellulose fraction with highest sucrase activity
T1 sequence (P23739 33-1841 limits assumed, one chain of several): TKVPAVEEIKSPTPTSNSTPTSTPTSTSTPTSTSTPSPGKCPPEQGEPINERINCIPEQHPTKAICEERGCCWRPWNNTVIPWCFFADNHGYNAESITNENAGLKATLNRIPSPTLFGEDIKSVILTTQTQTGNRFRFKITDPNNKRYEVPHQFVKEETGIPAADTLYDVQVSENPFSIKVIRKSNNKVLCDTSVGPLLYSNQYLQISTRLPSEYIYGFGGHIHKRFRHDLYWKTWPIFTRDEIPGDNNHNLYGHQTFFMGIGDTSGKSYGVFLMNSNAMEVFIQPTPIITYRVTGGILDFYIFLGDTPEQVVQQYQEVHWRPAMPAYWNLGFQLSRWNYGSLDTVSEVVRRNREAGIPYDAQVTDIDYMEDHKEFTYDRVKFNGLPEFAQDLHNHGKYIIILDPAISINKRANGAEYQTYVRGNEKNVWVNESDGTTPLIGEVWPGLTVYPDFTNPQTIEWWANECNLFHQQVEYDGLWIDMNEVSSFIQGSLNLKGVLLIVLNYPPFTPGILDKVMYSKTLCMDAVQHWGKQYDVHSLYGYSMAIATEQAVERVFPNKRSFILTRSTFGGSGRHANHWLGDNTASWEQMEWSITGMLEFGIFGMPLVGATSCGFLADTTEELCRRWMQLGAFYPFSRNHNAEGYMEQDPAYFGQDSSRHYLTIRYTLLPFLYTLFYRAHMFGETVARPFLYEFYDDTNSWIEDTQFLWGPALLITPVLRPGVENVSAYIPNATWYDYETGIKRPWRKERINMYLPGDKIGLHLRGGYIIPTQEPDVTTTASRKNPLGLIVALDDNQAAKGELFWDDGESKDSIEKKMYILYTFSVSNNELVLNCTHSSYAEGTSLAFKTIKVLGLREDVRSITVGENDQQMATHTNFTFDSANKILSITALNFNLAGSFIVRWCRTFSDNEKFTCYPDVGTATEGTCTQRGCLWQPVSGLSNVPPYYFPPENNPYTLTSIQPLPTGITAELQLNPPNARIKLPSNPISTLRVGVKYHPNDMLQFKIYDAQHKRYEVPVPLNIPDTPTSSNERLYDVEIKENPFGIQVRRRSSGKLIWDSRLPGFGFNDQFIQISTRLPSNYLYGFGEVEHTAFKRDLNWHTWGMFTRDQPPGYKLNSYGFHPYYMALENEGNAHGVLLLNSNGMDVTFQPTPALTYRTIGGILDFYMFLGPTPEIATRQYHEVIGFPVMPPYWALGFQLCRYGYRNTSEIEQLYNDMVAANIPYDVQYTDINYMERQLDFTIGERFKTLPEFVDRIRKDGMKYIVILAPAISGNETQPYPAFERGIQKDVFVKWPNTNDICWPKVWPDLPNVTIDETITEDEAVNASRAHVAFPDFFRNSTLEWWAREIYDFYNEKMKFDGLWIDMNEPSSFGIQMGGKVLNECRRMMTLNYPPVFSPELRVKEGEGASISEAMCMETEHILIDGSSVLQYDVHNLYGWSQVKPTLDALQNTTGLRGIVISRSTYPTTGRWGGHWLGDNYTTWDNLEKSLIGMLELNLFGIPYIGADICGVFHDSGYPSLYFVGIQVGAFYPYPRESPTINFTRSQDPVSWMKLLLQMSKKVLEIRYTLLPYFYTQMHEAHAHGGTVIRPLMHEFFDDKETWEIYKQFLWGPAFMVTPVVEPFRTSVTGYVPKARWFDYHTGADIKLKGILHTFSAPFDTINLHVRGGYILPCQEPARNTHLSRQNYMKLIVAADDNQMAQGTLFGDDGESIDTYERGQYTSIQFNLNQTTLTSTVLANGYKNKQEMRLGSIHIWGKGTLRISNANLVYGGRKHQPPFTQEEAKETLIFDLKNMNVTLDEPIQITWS
Experimental: Decomposability of the sucrose-isomaltase complex on dextrin was investigated in order to confirm that decomposition of starch in the following Examples 4, 6 and 7 and Test Example 5 was attained by glucoamylase, but not by sucrose or isomaltase.
A. Extraction of a crude enzyme, sucrose-isomaltase complex Twenty grams of rat small-intestinal acetone powder (ex Sigma Corporation) were added to 180 ml of 50 mM potassium phosphate buffer (pH 7.0) and extracted for 4 hours while slowly stirred at room temperature, to which 6.5 ml of a cysteine solution (100 mg/10 ml) and 1.5 ml of a papain solution (MP Biomedicals, LLC 80 mg/2 ml) were subsequently added and the mixture was incubated at 37° C. for 1 hour to conduct a papain treatment. Then, a supernatant was recovered by centrifugal separation (8000 rpm×15 min.) and further filtered by aspiration using Toyo Filter Paper No. 2 to obtain 164 ml of a crude enzyme solution. Protein was precipitated at an ammonium sulfate concentration of 45% from the crude enzyme solution and then a supernatant was recovered by centrifugal separation (8000 rpm×15 min.). Next, ammonium sulfate was added to the supernatant up to a concentration of 65% to precipitate protein, and then the precipitate was recovered by centrifugal separation (8000 rpm×15 min.). […] The enzymatic activity was measured for each fraction and the fraction with the highest activity of a sucrose-isomaltase complex was recovered to obtain a 12 ml crude enzyme solution. The sucrose-isomaltase complex activity was determined by measuring a decomposition activity for sucrose in each fraction. […] A glucose concentration was determined using the F-kit Glucose (ex Roche) described in item D below. […]
A glucose concentration in each sample after the reaction was measured using the F-kit Glucose (ex Roche Corporation). A liberated glucose concentration (g/l) was calculated by subtracting a blank value (0.1 M phosphate buffer alone (pH 6.8)) and a concentration of glucose originally contained in the test sample (dextrin and sucrose) from the determined glucose concentration.

[2] = test system: small-intestinal enzyme liquid; test: Decomposition of a saccharide alone (control solution) by small-intestinal enzyme liquid; format: biochemical, rat
Experimental: (§1) Palatinose (trade name: Palatinose IC, ex Shin Mitsui Sugar Co., Ltd.) (test sample) was used as a sample for investigating each enzyme activity inhibitory effect. Maltose and sucrose were used as substrates for maltase and sucrose, respectively. The test sample and the substrates were dissolved in 0.1 M phosphate buffer (pH 6.8) at the concentration shown in Table 1 below to prepare test solutions (Solutions 4 and 5). Also, the test sample or the substrates were dissolved in 0.1 M phosphate buffer (pH 6.8), respectively to at the concentration shown in Table 1 below to prepare control solutions (Solution 1 for the test sample and Solutions 2 and 3 for the substrates).
(§2) Two grams of rat small-intestinal acetone powder (ex Sigma Corporation) were dissolved in 20 ml of 0.1 M phosphate buffer (pH 6.8), left standing one day at 5° C., and subsequently subjected to centrifugal separation (8000 rpm×15 min.). The supernatant was filtered through a 0.8 μm membrane filter to obtain a small-intestinal enzyme liquid. This liquid contained a mixture of enzymes present in small intestine, such as sucrose, glucoamylase, maltase, and isomaltase.
(§3) Each 0.25 ml of the small-intestinal enzyme liquid was added to each 5 ml of Solutions 1 through 5 and placed in a water bath at 37° C. to allow them to react for 60 min. while shaken at 60 strokes/min. After the reaction, they were heated in a boiling water bath for 3 min. for inactivation of the enzymes.
(§4) The glucose concentration in each solution after the reaction was measured using the F-kit Glucose (ex Roche). A liberated glucose concentration (g/l) was calculated by subtracting the blank value (0.1 M phosphate buffer alone) and the concentration of glucose originally contained in the test sample from each glucose concentration measured.
The fructose concentration was measured using the F-kit Fructose (ex Roche). The liberated fructose concentration, g/l, was obtained by subtracting the blank value (0.1 M phosphate buffer alone) from the resultant fructose concentration.
The procedures in Example 1 were repeated with the exception that palatinit, palatinose or isomaltose was used as a test sample and lactose was used as a substrate. The test samples and the substrate were dissolved in 0.1 M phosphate buffer (pH 6.8) to attain the concentration shown in Table 5 to thereby prepare three test solutions. Besides, each of the test samples or the substrate was dissolved in 0.1 M phosphate buffer (pH 6.8) to attain the concentration shown in Table 5 to thereby prepare control solutions. Each 5 ml of the aforementioned test solutions and the control solutions was subjected to the enzymatic reaction according to the same procedures as in Example 1. The glucose concentration, the fructose concentration and the galactose concentration were measured. The galactose concentration was measured using F-kit Galactose (ex Roche). The liberated galactose concentration, g/l, was calculated by subtracting the blank value (0.1 M phosphate buffer alone) from the measured galactose concentration.

sucrase = target: T2, sucrase (Rattus norvegicus, UniProt P23739); test: Sucrase activity inhibition with rat small-intestinal enzyme liquid, substrate sucrose; format: biochemical; settings: 5% sucrose + 5% test sample
T2 construct: This liquid contained a mixture of enzymes present in small intestine, such as sucrose, glucoamylase, maltase, and isomaltase; tissue Sigma Corporation; host or cells: rat small intestine (acetone powder), buffer extract, unpurified
T2 sequence (P23739 whole entry): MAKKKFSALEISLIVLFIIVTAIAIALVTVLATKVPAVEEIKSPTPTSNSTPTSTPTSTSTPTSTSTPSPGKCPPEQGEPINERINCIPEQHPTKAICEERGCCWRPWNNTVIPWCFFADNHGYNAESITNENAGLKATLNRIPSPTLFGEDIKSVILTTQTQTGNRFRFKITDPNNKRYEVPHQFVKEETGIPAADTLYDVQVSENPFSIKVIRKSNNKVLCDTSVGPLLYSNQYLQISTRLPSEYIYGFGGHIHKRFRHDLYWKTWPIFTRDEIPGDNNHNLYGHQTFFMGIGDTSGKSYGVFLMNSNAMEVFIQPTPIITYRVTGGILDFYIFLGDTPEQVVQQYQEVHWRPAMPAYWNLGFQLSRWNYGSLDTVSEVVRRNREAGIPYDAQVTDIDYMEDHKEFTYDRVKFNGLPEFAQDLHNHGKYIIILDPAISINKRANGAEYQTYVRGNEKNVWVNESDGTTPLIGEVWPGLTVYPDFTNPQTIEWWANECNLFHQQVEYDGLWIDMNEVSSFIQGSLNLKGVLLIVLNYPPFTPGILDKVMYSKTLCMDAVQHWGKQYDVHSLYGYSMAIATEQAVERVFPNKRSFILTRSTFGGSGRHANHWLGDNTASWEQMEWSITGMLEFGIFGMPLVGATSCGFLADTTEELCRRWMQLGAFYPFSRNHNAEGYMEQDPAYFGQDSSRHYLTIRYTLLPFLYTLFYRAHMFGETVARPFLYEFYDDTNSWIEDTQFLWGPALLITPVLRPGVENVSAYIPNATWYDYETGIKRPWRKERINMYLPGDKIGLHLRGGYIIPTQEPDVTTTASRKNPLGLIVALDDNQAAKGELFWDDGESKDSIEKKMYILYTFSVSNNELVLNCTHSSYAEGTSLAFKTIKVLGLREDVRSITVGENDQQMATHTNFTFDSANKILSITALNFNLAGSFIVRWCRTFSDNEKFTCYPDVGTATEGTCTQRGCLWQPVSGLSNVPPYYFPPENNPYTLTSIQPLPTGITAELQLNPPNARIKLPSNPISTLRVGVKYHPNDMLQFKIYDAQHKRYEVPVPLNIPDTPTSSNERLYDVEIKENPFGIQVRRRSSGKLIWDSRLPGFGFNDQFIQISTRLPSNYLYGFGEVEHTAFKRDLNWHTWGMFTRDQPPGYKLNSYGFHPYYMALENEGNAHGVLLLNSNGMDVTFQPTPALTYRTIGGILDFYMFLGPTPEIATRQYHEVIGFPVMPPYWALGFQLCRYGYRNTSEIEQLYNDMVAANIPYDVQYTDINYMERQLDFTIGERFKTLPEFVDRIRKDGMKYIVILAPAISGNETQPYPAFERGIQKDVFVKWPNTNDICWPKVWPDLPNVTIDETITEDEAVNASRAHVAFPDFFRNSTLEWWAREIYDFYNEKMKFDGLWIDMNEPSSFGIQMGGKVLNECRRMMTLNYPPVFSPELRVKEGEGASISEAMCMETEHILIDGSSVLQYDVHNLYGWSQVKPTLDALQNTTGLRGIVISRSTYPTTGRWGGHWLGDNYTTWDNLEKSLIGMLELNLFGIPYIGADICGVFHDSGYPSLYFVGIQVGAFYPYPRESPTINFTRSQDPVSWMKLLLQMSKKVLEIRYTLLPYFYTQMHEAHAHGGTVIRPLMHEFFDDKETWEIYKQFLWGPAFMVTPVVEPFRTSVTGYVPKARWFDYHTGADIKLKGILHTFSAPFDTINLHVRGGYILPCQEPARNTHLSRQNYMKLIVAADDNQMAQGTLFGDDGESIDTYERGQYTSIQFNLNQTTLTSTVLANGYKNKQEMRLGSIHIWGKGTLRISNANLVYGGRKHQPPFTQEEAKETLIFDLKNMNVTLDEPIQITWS
Experimental: as §1, §2, §3, §4
(§5) Next, each of the liberated glucose concentration was input in the following equation to obtain decomposition inhibition ratio for maltase and sucrose. In the present tests, the substrates and the inhibitors were decomposed by enzymes present in the small-intestinal enzyme liquid. However, the enzymes decomposing the substrates are different from the enzymes decomposing the inhibitors. The decomposition inhibition ratio was determined as a measure for the inhibitory effect. When the inhibitor was added, the glucose concentration was lower than that seen when the substrate alone was reacted. A higher decomposition inhibition ratio means a stronger inhibitory effect.
(§6) Decomposition inhibition ratio,%={(A+B)−(AB)}+(A+B)×100 [Equation 1]
(§7) wherein (A+B) indicates a sum of a liberated glucose concentration in the control solution containing the test sample alone after the reaction (A) and a liberated glucose concentration in the control solution containing the substrate alone after the reaction (B); and (AB) indicates a liberated glucose concentration in the test solution containing the test sample (A) and the substrate (B), after the reaction.
The procedures in Example 1 were repeated with the exception that the test solutions contained 5% of sucrose and 0.5%, 1.0%, 3.0% or 5.0% of palatinose to examine intensity of the sucrose activity inhibition. A control solution contained 5% of sucrose in 0.1 M phosphate buffer (pH 6.8).
The procedures in Example 1 were repeated with the exception that palatinit and palatinose were used as test samples and sucrose was used as a substrate. The test samples and the substrate were dissolved in 0.1 M phosphate buffer (pH 6.8) to attain the concentration shown in Table 3 to thereby prepare two test solutions. Besides, each one of the test samples or the substrate was dissolved in 0.1 M phosphate buffer (pH 6.8) to attain the concentration shown in Table 3 to thereby prepare control solutions. Each 5 ml of the aforementioned test solutions or the control solutions was subjected to the enzymatic reaction according to the same procedures as in Example 1. The glucose concentration and the fructose concentration were measured. […]

glucoamylase = test: Glucoamylase activity inhibition with rat small-intestinal enzyme liquid, substrate soluble starch; format: biochemical; settings: 5% soluble starch + 5% test sample
Experimental: as §2, §3, §4, §5, §6, §7
The procedures in Example 1 were repeated with the exception that palatinose and palatinit were used as a test sample and soluble starch was used as a substrate. The test samples and the substrate were dissolved in 0.1 M phosphate buffer (pH 6.8) to attain the concentration shown in Table 6 to thereby prepare two test solutions. Besides, each of the test samples or the substrate was dissolved in 0.1 M phosphate buffer (pH 6.8) to attain the concentration shown in Table 6 to thereby prepare control solutions. Each 5 ml of the aforementioned test solutions and the control solutions was subjected to the enzymatic reaction according to the same procedures as in Example 1 and the liberated glucose concentration and the decomposition inhibition ratio were measured.
The procedures in Example 1 were repeated with the exception that trehalulose was used as a test sample and soluble starch was used as a substrate. The test sample and the substrate were dissolved in 0.1 M phosphate buffer (pH 6.8) to attain the concentration shown in Table 9 to thereby prepare a test solution. Besides, the test sample or the substrate was dissolved in 0.1 M phosphate buffer (pH 6.8) to attain the concentration shown in Table 9 to thereby prepare control solutions. Each 5 ml of the aforementioned test solution and the control solutions was subjected to the enzymatic reaction according to the same procedures as in Example 1 and the liberated glucose concentration and the decomposition inhibition ratio were measured.
The procedures in Example 1 were repeated with the exception that trehalose was used as a test sample and soluble starch was used as a substrate. […]

[3] = target: (Homo sapiens, UniProt P14410); settings: 5-75 mM sucrose as substrate, 5 mM trehalulose as inhibitor; cited from earlier work
[4] = crude enzyme liquid 0.125 ml, dextrin 2% (Sample 1) or sucrose 26.6 mM (Sample 3)
[5] = 5% saccharide alone, Example 3 / Test Examples 2, 3
[6] = 5% saccharide alone, Example 5 / Test Example 4

| Mean amount of produced glucose [1, 4] | Liberated glucose concentration ([2]; 5% saccharide alone, 37° C., 60 min, pH 6.8, Example 1 / Test Example 1) | Liberated fructose concentration [2, 5] | Liberated glucose concentration [2, 5] | Total concentration of liberated monosaccharides (glucose + fructose) ([2]; control solution with sucrose only, 5%) | Mean amount of produced glucose ([1]; crude enzyme liquid 0.25 ml, dextrin 2% (Sample 2)) | Compound | Liberated glucose concentration [2, 6] | Sucrase activity inhibitory effect (in words) (sucrase) | Decomposition inhibition ratio, %, against sucrase (sucrase; Example 5 / Test Example 4) | Liberated glucose concentration (sucrase; Example 5 / Test Example 4) | Liberated glucose concentration ([2]; 5% saccharide alone, Example 6 / Test Example 5) | Glucoamylase activity inhibitory effect (in words) (glucoamylase) | Decomposition inhibition ratio, %, against glucoamylase (glucoamylase; Example 6 / Test Example 5) | Liberated glucose concentration (glucoamylase; Example 6 / Test Example 5) | Inhibitory effect on the sucrase activity (reported) [3] |
| --- | --- | --- | --- | --- | --- | --- | --- | --- | --- | --- | --- | --- | --- | --- | --- |
| 0.474 g/L | 0.959 ± 0.022 g/L | 1.09 g/L | 1.01 g/L | 2.10 g/L | – | OC[C@H]1O[C@@](CO)(O[C@H]2O[C@H](CO)[C@@H](O)[C@H](O)[C@H]2O)[C@@H](O)[C@@H]1O [sucrose] | 1.628 g/L | – | – | – | – | – | – | – | – |
| – | – | – | – | – | – | trehalulose | 0.558 g/L | has the sucrose activity inhibitory effect | 36% | 1.403 g/L | 0.411 g/L | has a glucoamylase activity inhibitory effect | 28% | 2.028 g/L | no inhibitory effect |
| 0.057 g/L | – | – | – | – | 0.088 g/L | dextrin | – | – | – | – | – | – | – | – | – |
